Measured values as given in patent publication US20260028364A1, “CATIONIC CHROMENONES AND THEIR USE IN ONCOLOGY” (FLORATEK PHARMA S.A., priority 2022, published 2026).
pIC50: −log10 of the molar value.

What was measured:
Format in all cases: cell-based
SK-Mel-5 = experiment: CellTiter-Glo cell viability, SK-Mel-5; details: Homo sapiens; SK-Mel-5 cells, 72 h with compound
Experimental: (§1) Antitumor activity against a panel of cancer cell lines Antitumor activity of the compounds was assessed by using the CellTiter-Glow® Luminescent Cell Viability assay (Promega #G7572) according to the manufacturer's instructions. The compounds were tested at 5 or 6 concentrations in 1:2 dilution increments (highest concentration 10 µM) in triplicate well conditions.
(§2) Tumor cells were grown at 37° C. in a humidified atmosphere with 5% CO2 in RPMI 1640 or DMEM medium, supplemented with 10% (v/v) fetal calf serum and 50 μg/ml gentamicin for up to 20 passages, and were passaged once or twice weekly. Cells were harvested using TrypLE or PBS buffer containing 1 mM EDTA, and the percentage of viable cells is determined using a cell counter.
(§3) Cells were harvested from exponential phase cultures, counted and plated in 96 well flat-bottom microtiter plates at a cell density depending on the cell line's growth rate (4,000-20,000 cells/well depending on the cell line's growth rate) in RPMI 1640 or DMEM medium supplemented with 10% (v/v) fetal calf serum and 50 μg/ml gentamicin (140 μl/well). Cultures were incubated at 37° C. and 5% CO2 in a humidified atmosphere. After 24 h, 10 μl of test compounds or control medium are added, and left on the cells for another 72 h. Compounds were serially diluted in DMSO, transferred in cell culture medium, and added to the assay plates. The DMSO concentration was kept constant at <0.2% v/v across the assay plate. Viability of cells was quantified by the CellTiter-Glow® Luminescent Cell Viability assay (Promega #G7572). Luminescence was measured with the microplate luminometer (En Vision Perkin Elmer).
(§4) Sigmoidal concentration-response curves were fitted to the data points (test-versus-control, T/C values) obtained for each tumor model using Graph Pad prism 5.02 software. IC50 values are reported as absolute IC50 values, being the concentration of test compound at the intersection of the concentration-response curves with T/C=50%.

MDA-MB-468 = experiment: Caspase-Glo 3/7 apoptosis assay, MDA-MB-468; details: MDA-MB-468 cells, 10 μM, 24 h
Experimental: (§5) Apoptosis activity was evaluated using Caspase-Glo 3/7 Assay kit (Promega-G8091) according to the manufacturer's instructions. Cells were grown as above and harvested from exponential phase cultures, counted and plated in 96 black well flat-bottom microtiter plates at a cell density depending on the cell line's growth rate (3,000-10,000 cells/well depending on the cell line's growth rate). Following an overnight incubation, compounds were added to the cell plates at various concentrations (highest at […]) with the DMSO concentration maintained at 0.1% for a 24 h period treatment. 100 μL of Caspase-Glo 3/7 Reagent was added to each well of 96-well plate containing 100 μL culture medium, and after 30 min at room temperature, luminescence was measured with the microplate luminometer (EnVision Perkin Elmer). The induced relative Caspase 3/7 activity of the tested compounds was determined by the following formula: Relative Caspase 3/7 activity (fold increase)=(RLU compound−RLU blank)/(RLU control−RLU blank).

DMS-114 = experiment: Caspase-Glo 3/7 apoptosis assay, DMS-114; details: DMS-114 cells, 10 μM, 24 h
Experimental: as §5

A2058 = experiment: Caspase-Glo 3/7 apoptosis assay, A2058; details: A2058 cells, 10 μM, 24 h
Experimental: as §5

SHP-77 = experiment: CellTiter-Glo cell viability, SHP-77; details: Homo sapiens, SHP77; SHP-77 cells, 72 h with compound
Experimental: as §1, §2
as §3, with “After 24 h, 10 μl of test compounds or control medium are added, and left on the cells for another 72 h. Compounds were serially diluted in DMSO, transferred in cell culture medium, and added to the assay plates. The DMSO concentration was kept constant at <0.2% v/v across the assay plate.” left out, “Elmer). […]” for “Elmer).”

HCC-15 = experiment: CellTiter-Glo cell viability, HCC-15; details: HCC15; HCC-15 cells, 72 h with compound
Experimental: as §1, §2, §3, §4

MCF-7 = experiment: CellTiter-Glo cell viability, MCF-7; details: Homo sapiens, MCF7; MCF-7 cells, 72 h with compound
Experimental: as §1, §2, §3, §4

K562 = experiment: CellTiter-Glo cell viability, K562; details: Homo sapiens; K562 cells, 72 h with compound
Experimental: as §1, §2
as §3, with “After 24 h, 10 μl of test compounds or control medium are added, and left on the cells for another 72 h. Compounds were serially diluted in DMSO, transferred in cell culture medium, and added to the assay plates. The DMSO concentration was kept constant at <0.2% v/v across the assay plate.” left out, “Elmer). […]” for “Elmer).”

LoVo = experiment: CellTiter-Glo cell viability, LoVo; details: Homo sapiens; LoVo cells, 72 h with compound
Experimental: as §1, §2
as §3, with “After 24 h, 10 μl of test compounds or control medium are added, and left on the cells for another 72 h. Compounds were serially diluted in DMSO, transferred in cell culture medium, and added to the assay plates. The DMSO concentration was kept constant at <0.2% v/v across the assay plate.” left out, “Elmer). […]” for “Elmer).”

A-673 = experiment: CellTiter-Glo cell viability, A-673; details: Homo sapiens, A673; A-673 cells, 72 h with compound
Experimental: as §1, §2, §3, §4

MAPK/MEK/B-raf = experiment: SelectScreen CellSensor pathway inhibition, MAPK/MEK/B-raf; details: Homo sapiens, A-375; AP1-bla A375, no stimulus (constitutively activated)
Experimental: Inhibition of various cellular pathways known to be involved in malignancy was tested using the SelectScreen Cell-based Pathway Profiling GeneBLAzer™ cell signaling pathway specific CellSensor™ cell lines ((Thermo Fisher). The assay is based on a beta-lactamase reporter activity which is modulated and can be measured quantitatively and selectively with the LiveBLAzer™-FRET B/G Loading Substrate. SelectScreen Cell-Based Pathway Profiling Service uses XLfit from IDBS. The dose response curve is curve fit to model number 205 (sigmoidal dose-response model). Custom logic was built by Thermo Fisher for the data analysis tool to address the different compound characteristics that can be observed with functional assays.
MAPK/MEK/B-raf—AP1-bla A375—Inhibitor Screen, Constitutively Activated
AP1-bla A375 cells are thawed and resuspended in Assay Media (OPTI-MEM, 0.5% dialyzed FBS, 0.1 mM NEAA, 1 mM Sodium Pyruvate, 100 U/mL/[…] Pen/Strep) to a concentration of 312,500 cells/mL. 4 μL of a 10×serial dilution of Rafi Kinase Inhibitor (control inhibitor starting concentration, 10,000 nM) or compounds are added to appropriate wells of a TC-Treated assay plate. 32 μL of cell suspension (10,000 cells) is added to the wells. 4 μL of Assay Media is added to all wells to bring the final assay volume to 40 μL. […] The plate is read on a fluorescence plate reader.

A375 = experiment: Caspase-Glo 3/7 apoptosis assay, A375; details: A375 cells, 10 μM, 24 h
Experimental: as §5

pIC50 (SK-Mel-5): 6.33
pIC50 (HCC-15): 8.00
pIC50 (MCF-7): 7.68
pIC50 (K562): 7.85
pIC50 (LoVo): 6.04
pIC50 (MAPK/MEK/B-raf): 5.57
Compound: COc1ccc2c(=O)c(-c3ccc(CCCC[P+](c4ccccc4)(c4ccccc4)c4ccccc4)cc3)coc2c1OC.[Br-] [SND470, (4-(4-(7,8-Dimethoxy-4-oxo-4H-chromen-3-yl)phenyl)butyl)triphenylphosphonium bromide]
Fold activation of Caspase 3/7 (MDA-MB-468): 3.15 Fold
Fold activation of Caspase 3/7 (DMS-114): 3.32 Fold
Fold activation of Caspase 3/7 (A2058): 3.87 Fold
pIC50 (SHP-77): 6.04
pIC50 (A-673): 6.70
Fold activation of Caspase 3/7 (A375): 13.98 Fold
